Patent publication US20140187505A1, “Cardiac Glycosides to Treat Cystic Fibrosis and Other IL-8 Dependent Disorders” (priority 2002, published 2014)
Several values for one entry are separate records, joined by “and”; a condition that tells them apart may be missing. Identical values can stand only once. Like-named read-outs stand apart in the source and are kept apart here.

Tests used:
[1] = tested on: IL-8 secretion from cystic fibrosis lung epithelial IB3-1 cells
[2] = mobile phase: methanol/water 30:70; cited from earlier work
[3] = eluent acetonitrile/water 45:55; cited from earlier work
[4] = tested on: guinea-pig heart Na^+-K^+-ATPase; conditions: cited from earlier work
[5] = octanol/water (20 mM TRIS-HCl, pH 7.4), cited from earlier work
[6] = tested on: TNFa/NFkB signaling pathway; experiment: Reverse Phase Protein Microarrays of TNFa/NFkB pathway phosphorylation in IB3-1 cells; type: cell-based, human; conditions: IC-90 concentrations
Source text: Previously published data have implicated a dysfunctional TNFa/NFkB signaling pathway as responsible for the pro-inflammatory phenotype of the CF lung (Eidelman et al, 2001a). […] IC-90 means a concentration of drug that blocks 90% of IL-8 secretion from the IB3-1 cells. […] (See FIG. 1).

[7] = tested on: Cystic Fibrosis IB-3 Lung Epithelial Cells; experiment: Secretion of proinflammatory mediators from IB-3 cells (ELISA, 24 hours); type: cell-based; conditions: Homo sapiens, Epithelial cell
[8] = tested on: collagen induced arthritis (CIA) mice; conditions: mouse, in vivo
[9] = tested on: rat lungs infected with influenza; experiment: Cytokines and chemokines in lungs of influenza-infected cotton rats; type: in vivo; conditions: 3, 10 or 30 microgram/kg ip daily, lung harvested day 4
Method: Fifteen standard cotton rats were divided into five groups of three each. […] The rats in the treatment groups were pre-treated on the preceding day with either 3, 10, or 30 micro-g/kg intraperitoneally. […] Each rat was then treated on Day 1 with 100 microliters of Wuhan Strain influenza virus (titer-10^8 TC-IC 50/ml) (IC is […]) by intra-nasal administration to induce lung inflammation.
The rats were sacrificed on the last day 4 hrs after treatment.
Pieces of lung was harvested on day 4 and homogenized in PBS by glass-on-glass homogenizer in 1 gram/ml. Samples are frozen on dry ice, and then transferred to −80° C. for analysis. […] Rodents lack IL-8 and instead have GRO/KC and MIP-2. […] GM-CSF was undetectable in the tissue under any conditions.

[10] = tested on: PAIII Castration Resistant Prostate Cancer cells; parameters: species or system Lobund-Wistar rats; conditions: rat, in vivo
[11] = tested on: IL-6 and CINC1 (rat IL-8 equivalent); experiment: Serum IL-6 and CINC1 in rats bearing PAIII tumors; type: in vivo; conditions: digitoxin 0.03 mg/kg daily for 30 days, serum day 30
[12] = tested on: PAIII cancer cells; parameters: species or system Lobund-Wistar rats; conditions: rat, in vivo
[13] = tested on: rat PAIII castration-resistant prostate cancer cells; experiment: MicroRNA expression in cultured PAIII cells (TaqMan, DDCt); type: cell-based; conditions: 6 nM Digitoxin, 24 hours
[14] = tested on: Human castration-resistant prostate cancer PC3 cells; experiment: EMT protein expression in PC3 cells (Western blot); type: cell-based; conditions: 24 hours, vehicle 100%
[15] = tested on: clear cell renal carcinoma metastatic to the brain and spinal cord; conditions: human, in vivo
[16] = tested on: HeLa cervical cancer cells; conditions: human
[17] = tested on: HeLa cervical cancer cells; experiment: cells; conditions: Homo sapiens, 24 h, read-out: IC50 dose for cell death
[18] = for 70 kg man, cited from earlier work
[19] = tested on: rat PAIII castration resistant prostate cancer cells; experiment: EMT mRNA expression in cultured PAIII cells (FPKM); conditions: 6 nM Digitoxin, 24 hours
[20] = tested on: human vascular endothelial cells (HUVEC); conditions: in vitro, read-out: 50% kill concentration; cited from earlier work
[21] = Homo sapiens, IB3-1, 48 h, read-out: IC50 nmol/L in cells
[22] = Homo sapiens, IB3-1, 48 h, read-out: IC50 (K50) for spontaneous IL-8 secretion

SMILES: CC(=O)O[C@H]1CC[C@]2(C=O)[C@H]3CC[C@]4(C)[C@@H](C5=CC(=O)OC5)CC[C@]4(O)[C@@H]3CC[C@]2(O)C1 [acetylstrophanthdin, acetyl-strophanthidin]
- IC50 ([1]; read-out: IC50 nmol/L in cells, 50% suppression of spontaneous IL-8 secretion, IB3-1 cells, 48 hours): 117 nmol/L

SMILES: C[C@]12CC[C@H](O)C[C@H]1CC[C@@H]1[C@@H]2CC[C@]2(C)[C@@H](C3=CC(=O)OC3)CC[C@]12O [digitoxigenin]
- RM values (lipophilicity, reversed-phase thin layer chromatography) [2]: 1.03
- K retentions for reversed-phase high pressure liquid chromatography [3]: 1.81
- ID50 [4]: 1.63 ± 0.06 ×10^−4 mol l^−1
- P (partition coefficient in octanol/water system) [5]: 270.0 ± 94.1
- IC50 [1, 21]: 74 nmol/L

SMILES: C[C@H]1O[C@@H](O[C@H]2[C@@H](O)C[C@H](O[C@H]3[C@@H](O)C[C@H](O[C@H]4CC[C@@]5(C)[C@H](CC[C@@H]6[C@@H]5CC[C@]5(C)[C@@H](C7=CC(=O)OC7)CC[C@]65O)C4)O[C@@H]3C)O[C@@H]2C)C[C@H](O)[C@@H]1O [digitoxin]
- Constitutive phosphorylation of IkBalpha and NFkB, p65 [6]: significantly suppressed
- Phosphorylation of IKKalpha [6]: modestly suppressed
- activity at 0.01 µM ([7]; read-out: ICAM1 secretion, % of Control): 19%
- activity at 0.03 µM ([7]; read-out: ICAM1 secretion, % of control): 30%
- activity at 0.01 µM ([7]; read-out: IFN-gamma secretion, % of Control): 100%
- activity at 0.03 µM ([7]; read-out: IFN-gamma secretion, % of control): 35%
- activity at 0.01 µM ([7]; read-out: IL-1-beta secretion, % of Control): 50%
- activity at 0.03 µM ([7]; read-out: IL-1-beta secretion, % of control): 50%
- activity at 0.01 µM ([7]; read-out: IL-6 secretion, % of Control): 3%
- activity at 0.03 µM ([7]; read-out: IL-6 secretion, % of control): 0%
- activity at 0.01 µM ([7]; read-out: IL-8 secretion, % of Control): 2%
- activity at 0.03 µM ([7]; read-out: IL-8 secretion, % of control): 0%
- activity at 0.01 µM ([7]; read-out: IP-10 secretion, % of Control): 100%
- activity at 0.03 µM ([7]; read-out: IP-10 secretion, % of control): 100%
- activity at 0.01 µM ([7]; read-out: TNFalpha secretion, % of Control): 5%
- activity at 0.03 µM ([7]; read-out: TNFalpha secretion, % of control): 0%
- Incidence of CIA (mice that developed symptoms) [8]: 50%
- Inflammatory focus (pannus-like) in metatarsal-phalangeal joints, histopathology [8]: absent
- Mean paw thickness [8]: decreased
- Severity of CIA (mean visual score) [8]: significant reduction
- GRO/KC in lung [9]: significant reductions
- IFNγ in lung [9]: significant reductions
- IL-13 in lung [9]: No significant changes
- MCP-1 in lung [9]: significant reductions
- MIP-2 in lung [9]: significant reductions
- TGFβ in lung [9]: No significant changes
- TNFa in lung [9]: significant reductions
- Diameter of metastasis, mm (median) [10]: 0.87 mm
- Number of Pleural Metastases (median) [10]: 16
- Weight of Primary Tumor, gm (median) [10]: 19.6 gm
- Serum Interleukin-6 (IL-6) ([11]; control 47.9 ± 14.1): 37.0 ± 16.9 pg/mL
- Serum CINC1/KC (rat IL-8 equivalent) ([11]; control 60.32 ± 20.6): 47.9 ± 14.4 pg/mL
- Diameter of metastatic foci, mm, (median) [12]: 1.76 mm
- Number of pleural metastatic foci (median) [12]: 122
- miR467b DDCt, Digitoxin - Vehicle [13]: 20.10
- miR-122 DDCt, Digitoxin - Vehicle [13]: 11.005
- miR-291a-3p DDCt, Digitoxin - Vehicle [13]: 19.13
- miR-347 DDCt, Digitoxin - Vehicle [13]: 4.34
- miR-376a DDCt, Digitoxin - Vehicle [13]: −32.75(↑)
- miR-380-3p DDCt, Digitoxin - Vehicle [13]: 16.57
- miR-411 DDCt, Digitoxin - Vehicle [13]: 4.61
- miR-667 DDCt, Digitoxin - Vehicle [13]: 7.01
- miR-670 DDCt, Digitoxin - Vehicle [13]: −12.11(↑)
- miR-879 DDCt, Digitoxin - Vehicle [13]: 11.31
- E-Cadherin % Band Intensity ([14]; Digitoxin 10 nM): 0%,
- SNAI1 % Band Intensity ([14]; Digitoxin 10 nM): 0%,
- Vimentin % Band Intensity ([14]; Digitoxin 10 nM): 0%,
- E-Cadherin % Band Intensity ([14]; Digitoxin 25 nM): 0%,
- SNAI1 % Band Intensity ([14]; Digitoxin 25 nM): 0%,
- Vimentin % Band Intensity ([14]; Digitoxin 25 nM): 0%,
- Clinical outcome of one cancer patient [15]: positive result
- Threshold concentration for an increase in cell death [16]: 70 to 100 nM
- RM values (lipophilicity, reversed-phase thin layer chromatography) [2]: 1.37
- K retentions for reversed-phase high pressure liquid chromatography [3]: 3.34
- ID50 [4]: 0.31 ± 0.03 ×10^−4 mol l^−1
- IC50 [17]: ~200 nM
- P (partition coefficient in octanol/water system) [5]: 670 and 680
- P (partition coefficient in octanol/water system) ([5]; listed as Digitoxin): 670.0 ± 105.0
- Human toxicity limit [18]: 3036 nmol
- Human toxicity limit, Nmol/L = nM [18]: 45.4 nM
- Human toxicity limit ([18]; ouabain value is lethal dose): >2.5 mg
- FOXP3 mRNA % change [19]: −30%
- Hepatocyte Growth Factor mRNA % change [19]: −50%
- Igf2r mRNA % change [19]: −40%
- Vimentin mRNA % change [19]: −10%
- Zeb2 mRNA % change [19]: −30%
- IC50 [1, 21]: 0.9 nmol/L
- IC50 [1, 22]: ~0.9 nmol/L

SMILES: C[C@]12CC[C@H](O)C[C@H]1CC[C@@H]1[C@@H]2C[C@@H](O)[C@]2(C)[C@@H](C3=CC(=O)OC3)CC[C@]12O [digoxigenin]
- P (partition coefficient in octanol/water system) [5]: 13.5 ± 2.3
- IC50 [1, 21]: 34 nmol/L

SMILES: C[C@H]1O[C@@H](O[C@H]2[C@@H](O)C[C@H](O[C@H]3[C@@H](O)C[C@H](O[C@H]4CC[C@@]5(C)[C@H](CC[C@@H]6[C@@H]5C[C@@H](O)[C@]5(C)[C@@H](C7=CC(=O)OC7)CC[C@]65O)C4)O[C@@H]3C)O[C@@H]2C)C[C@H](O)[C@@H]1O [digoxin]
- RM values (lipophilicity, reversed-phase thin layer chromatography) [2]: 0.25
- K retentions for reversed-phase high pressure liquid chromatography [3]: 0.50
- ID50 [4]: 0.90 ± 0.07 ×10^−4 mol l^−1
- IC50 [20]: ~210 nM
- Human toxicity limit [18]: 1900 nmol
- Human toxicity limit, Nmol/L = nM [18]: 27.1 nM
- IC50 [1, 21]: 27 nmol/L
- IC50 [1, 22]: ~27 nmol/L

SMILES: CO[C@H]1C[C@H](O[C@H]2CC[C@@]3(C)[C@H](CC[C@@H]4[C@@H]3CC[C@]3(C)[C@@H](C5=CC(=O)OC5)[C@@H](OC(C)=O)C[C@]43O)C2)O[C@@H](C)[C@@H]1O [oleandrin]
- Threshold concentration for an increase in cell death [16]: ca. 30 nM
- IC50 [17]: ~100 nM
- IC50 [1, 21]: 2 nmol/L
- IC50 [1, 22]: ~2 nmol/L

SMILES: C[C@@H]1O[C@@H](O[C@H]2C[C@@H](O)[C@]3(CO)[C@H]4[C@H](O)C[C@]5(C)[C@@H](C6=CC(=O)OC6)CC[C@]5(O)[C@@H]4CC[C@]3(O)C2)[C@H](O)[C@H](O)[C@H]1O [ouabain]
- Threshold concentration for an increase in cell death [16]: ca. 50 nM
- RM values (lipophilicity, reversed-phase thin layer chromatography) [2]: −0.73
- K retentions for reversed-phase high pressure liquid chromatography [3]: 0.14
- ID50 [4]: 2.28 ± 0.10 ×10^−4 mol l^−1
- IC50 [20]: 240 nM and 357 nM and ~240 nM and ~357 nM
- IC50 [17]: ~200 nM
- P (partition coefficient in octanol/water system) [5]: 0.02 and 0.02 ± 0.00
- Human toxicity limit [18]: 1683 nmol
- IC50 [1, 21]: 8 nmol/L
